Earlier results on one compound are cited in patent US6846831B2, “Method of treating the syndrome of lipodystrophy” (CPD, LLC, priority 2000, dated 2005).

The target in one data set is δ opioid receptor (Rattus norvegicus, UniProt P33533). Conditions: read-out: δ IC50; homogenates of rat brain minus cerebellum; prototype ligand DADLE.
A further data set deals with κ opioid receptor (Rattus norvegicus, UniProt P34975). Conditions: read-out: κ IC50; homogenates of rat brain minus cerebellum; prototype ligand EKC.
Chain of κ opioid receptor (P34975 whole entry): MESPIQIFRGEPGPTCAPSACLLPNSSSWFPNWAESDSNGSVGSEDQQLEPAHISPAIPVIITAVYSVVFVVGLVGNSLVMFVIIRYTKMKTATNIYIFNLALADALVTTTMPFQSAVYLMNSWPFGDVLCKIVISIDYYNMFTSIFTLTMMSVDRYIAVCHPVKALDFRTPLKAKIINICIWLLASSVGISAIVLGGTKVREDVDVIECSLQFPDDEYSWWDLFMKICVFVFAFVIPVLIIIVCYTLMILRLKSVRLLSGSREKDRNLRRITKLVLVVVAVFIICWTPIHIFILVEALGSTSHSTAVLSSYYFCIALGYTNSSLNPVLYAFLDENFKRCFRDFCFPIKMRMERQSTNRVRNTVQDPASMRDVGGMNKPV
The target of the next data set is μ opioid receptor (Rattus norvegicus, UniProt P33535). Particulars: read-out: μ IC50; homogenates of rat brain minus cerebellum; prototype ligand DHM.
Chain of μ opioid receptor (P33535 whole entry): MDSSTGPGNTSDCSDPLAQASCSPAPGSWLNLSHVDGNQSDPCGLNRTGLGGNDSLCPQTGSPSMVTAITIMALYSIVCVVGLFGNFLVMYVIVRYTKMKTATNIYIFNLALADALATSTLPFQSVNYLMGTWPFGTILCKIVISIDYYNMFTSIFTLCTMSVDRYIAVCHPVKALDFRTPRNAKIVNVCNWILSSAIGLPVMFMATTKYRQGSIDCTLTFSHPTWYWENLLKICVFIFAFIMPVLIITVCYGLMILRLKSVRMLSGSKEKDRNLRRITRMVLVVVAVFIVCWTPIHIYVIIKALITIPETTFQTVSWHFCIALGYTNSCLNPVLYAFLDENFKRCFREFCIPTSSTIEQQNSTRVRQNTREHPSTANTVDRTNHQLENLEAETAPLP

Chain of δ opioid receptor (P33533 whole entry): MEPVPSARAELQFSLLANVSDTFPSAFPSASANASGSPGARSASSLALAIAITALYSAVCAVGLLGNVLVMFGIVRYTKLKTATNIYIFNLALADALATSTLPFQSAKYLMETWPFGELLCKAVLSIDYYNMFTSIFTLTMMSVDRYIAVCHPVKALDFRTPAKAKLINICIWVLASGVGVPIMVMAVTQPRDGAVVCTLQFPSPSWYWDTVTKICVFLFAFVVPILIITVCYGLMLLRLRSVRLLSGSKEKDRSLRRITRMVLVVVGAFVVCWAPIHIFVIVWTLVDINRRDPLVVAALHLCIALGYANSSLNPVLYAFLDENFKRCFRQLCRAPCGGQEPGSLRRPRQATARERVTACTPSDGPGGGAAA

On to `C=C1CC[C@@]2(O)[C@H]3Cc4ccc(O)c5c4[C@@]2(CCN3CC2CC2)[C@H]1O5` [Nalmefene], for which the IC50 at δ opioid receptor was 6.1 nM; on κ opioid receptor it was 5.3 nM; on μ opioid receptor, 1 nM.

In general, IC50 refers to the concentration that inhibits the measured activity by half.
